Laboratory results reported in US20240409584A1, “PEPTIDE HAVING ANTI-AGING ACTIVITY, AND USE THEREOF” (CAREGEN CO., LTD., priority 2021, published 2024).

Columns and labels:
Col1a1 = Col1a1 (collagen) gene expression in fibroblasts, RT-PCR; assay type: cell-based, mouse; conditions: NIH3T3 cells, peptide 10, 50, 100 μM, 24 hours, serum free DMEM; FIGS. 1A, 1B
Method: (§1) First, NIH3T3 cells (mouse fibroblast cell line) were seeded in a 6-well plate at a cell density of 3×10^5 cell/well, and then the cells were cultured in DMEM medium containing 10% fetal bovine serum (FBS) for 24 hours. The cultured cells were washed once with serum free DMEM medium, and the peptide of the present invention was mixed in 1 mL of the serum free DMEM medium at each of concentrations of 10, 50, and 100 μM, and dispensed into the cells. A positive control (PC) was treated with 5 ng/ml of TGF-B instead of the above peptide. The cells were cultured in a CO: incubator at 37° C. for 24 hours.
(§2) The cultured cells were washed twice with PBS, and RNA was extracted from the cells using easy blue (iNtRON, Cat. No.: 17061, Korea). The amount of RNA extracted was quantified, 1, 000 ng of RNA was added per tube, and RT reaction was performed using a kit (enzynomics, Cat. No.: PT200, Korea). RT-PCR was performed using a PCR kit (enzynomics, Cat. No.: P581T, Korea). The sequences of the primers of collagen, fibronectin, and elastin used in RT-PCR and the sequence of the primer of GAPDH used to compare the total RNA amount of each treatment group are shown in [Table 2].

fibronectin [1] = experiment: Fibronectin gene expression in fibroblasts, RT-PCR; assay type: cell-based, mouse; conditions: NIH3T3 cells, peptide 10, 50, 100 μM, 24 hours, serum free DMEM; FIGS. 1A, 1C
Method: as §1, §2

elastin = experiment: Elastin gene expression in fibroblasts, RT-PCR; assay type: cell-based, mouse; conditions: NIH3T3 cells, peptide 10, 50, 100 μM, 24 hours, serum free DMEM; FIGS. 1A, 1D
Method: as §1, §2

AQP3 = AQP3 gene expression in keratinocytes, RT-PCR; assay type: cell-based; conditions: HaCaT cells, peptide 10, 50, 100 μM, 24 hours; FIGS. 2A, 2B
Method: (§3) First, HaCaT cells were seeded in a 6-well plate at a cell density of 3×10^5 cell/well, and then the cells were cultured in DMEM medium containing 10% fetal bovine serum (FBS) for 24 hours. The cultured cells were washed once with serum free DMEM medium, and then the peptide of the present invention was mixed in 1 mL of the serum free DMEM medium at each of concentrations of 10, 50, and 100 μM, and dispensed into the cells. A positive control (PC) was treated with 100 nM of EGF instead of the above peptide. The cells were cultured in a CO: incubator at 37° C. for 24 hours.
(§4) The cultured cells were washed twice with PBS, and then RNA was extracted from the cells using easy blue (iNtRON, Cat. No.: 17061, Korea). The extracted RNA was subjected to RT reaction using a kit (enzynomics, Cat. No.: RT200, Korea). Thereafter, RT-PCR was performed using a PCR kit (enzynomics, Cat. No.: R581T, Korea). The sequences of the primers of AQP3 and SIRT1 used in RT-PCR and the sequence of the primer of GAPDH used to compare the total RNA amount of each treatment group are shown in [Table 2].

SIRT1 = SIRT1 gene expression in keratinocytes, RT-PCR; assay type: cell-based; conditions: HaCaT cells, peptide 10, 50, 100 μM, 24 hours; FIGS. 2A, 2C
Method: as §3, §4

NIH3T3 cells = experiment: Intracellular ROS increased by UVA irradiation, DCFH-DA/FACS; assay type: cell-based, mouse; conditions: 8 J/cm^2 UVA, peptide 10, 50, 100 μM, 24 hours after irradiation, FIG. 3A
Method: (§5) First, NIH3T3 cells and HaCaT cells were seeded in a 6-well plate at a cell density of 5×10^5 cell/well, respectively, and then the cells were cultured in DMEM medium containing 10% fetal bovine serum (FBS) for 24 hours. The cultured cells were washed once with serum free DMEM medium, and then the peptide of the present invention was mixed in 1 mL of the serum free DMEM medium at each of concentrations of 10, 50, and 100 μM, and dispensed into the cells. A positive control (PC) was treated with 50 μM of Trolox instead of the above peptide.
(§6) The cells were cultured in a CO2 incubator at 37° C. for 1 hour. The medium of the cultured cells was transferred to a tube, 1 ml of PBS was added, and then the NIH3T3 cells were irradiated with 8 J/cm^2 of UVA and the HaCaT cells were irradiated with 15 mJ/cm^2 of UVB using a UV irradiator (VILBER LOURMAT, Cat No.: 3102-BSU, France). After removing PBS, 900 μL of the medium transferred to the tube was dispensed, and culture was performed in a CO2 incubator at 37° C. for 24 hours. After treatment with 10 μM of dichloro-dihydro-fluorescein diacetate (DCFH-DA), wrapping with a foil was performed, and culture was performed in a CO2 incubator at 37° C. for 30 minutes. […] After centrifugation, the cells were washed with PBS, and a fluorescence value was measured through FACS.

HaCaT cells = experiment: Intracellular ROS increased by UVB irradiation, DCFH-DA/FACS; assay type: cell-based; conditions: 15 mJ/cm^2 UVB, peptide 10, 50, 100 μM, 24 hours after irradiation, FIG. 3B
Method: as §5, §6

Colla1 = experiment: Col1a1 gene expression decreased by UV in fibroblasts, RT-PCR; assay type: cell-based, mouse; conditions: NIH3T3 cells, 6 J/cm^2 UVA, peptide 10, 50, 100 μM, 6 hours after irradiation; FIGS. 4A, 4B
Method: as §5, with “First, NIH3T3 cells were” for “First, NIH3T3 cells and HaCaT cells were”, “5×10^5 cell/well, and then” for “5×10^5 cell/well, respectively, and then”, “treated with 2.5 mM of N-acetylcysteine or 50 μM” for “treated with 50 μM”, “above peptide. The cells were cultured in a CO: incubator at 37° C. for 1 hour.” for “above peptide.”
(§7) The medium of the cultured cells was transferred to a tube (e-tube), 1 ml of PBS was added, and irradiation was performed with 6 J/cm^2 of UVA using a UV irradiator (VILBER LOURMAT, Cat No.: 3102-BSU, France). After removing PBS, 900 μL of the medium transferred to the tube was dispensed, and culture was performed in a CO2 incubator at 37° C. for 6 hours. The cultured cells were washed twice with PBS, and then RNA was extracted from the cells using easy blue (iNtRON, Cat. No.: 17061, Korea). The amount of RNA extracted was quantified, 1,000 ng of RNA was added per tube, and RT reaction was performed using a kit (enzynomics, Cat. No.: RT200, Korea). Thereafter, RT-PCR was performed using a PCR kit (enzynomics, Cat. No.: R581T, Korea). […]

fibronectin [2] = experiment: Fibronectin gene expression decreased by UV in fibroblasts, RT-PCR; assay type: cell-based, mouse; conditions: NIH3T3 cells, 6 J/cm^2 UVA, peptide 10, 50, 100 μM, 6 hours after irradiation; FIGS. 4A, 4C
Method: as §5, with “First, NIH3T3 cells were” for “First, NIH3T3 cells and HaCaT cells were”, “5×10^5 cell/well, and then” for “5×10^5 cell/well, respectively, and then”, “treated with 2.5 mM of N-acetylcysteine or 50 μM” for “treated with 50 μM”, “above peptide. The cells were cultured in a CO: incubator at 37° C. for 1 hour.” for “above peptide.”
as §7

MMP-1 [3] = experiment: MMP-1 expression increased by UV in fibroblasts, western blot; assay type: cell-based, mouse; conditions: NIH3T3 cells, 6 J/cm^2 UVA, peptide 10, 50, 100 μM, 24 hours after irradiation; FIG. 5A
Method: (§8) First, NIH3T3 cells and HaCaT cells were seeded in a 6-well plate at a cell density of 5×10^5 cell/well, respectively, and then the cells were cultured in DMEM medium containing 10% fetal bovine serum (FBS) for 24 hours. The cultured cells were washed once with serum free DMEM medium, and the peptide of the present invention was mixed in 1 mL of the serum free DMEM medium at each of concentrations of 10, 50, and 100 μM, and dispensed into the cells. A positive control (PC) was treated with 25 and 50 µM of Trolox instead of the above peptide.
(§9) The cells were cultured in a CO2 incubator at 37° C. for 1 hour. The medium of the cultured cells was transferred to a tube (e-tube), 1 ml of PBS was added, and then the NIH3T3 cells were irradiated with 6 J/cm^2 of UVA and the HaCaT cells were irradiated with 15 mJ/cm^2 of UVB using a UV irradiator (VILBER LOURMAT, Cat No.: 3102-BSU, France). After removing PBS, 900 μL of the medium transferred to the tube was added, and culture was performed in a CO2 incubator at 37° C. for 24 hours. The medium of the cultured cells was transferred to a tube, the cells were washed twice with PBS, and then a cell lysis buffer was added to lyse the cells. A sample was prepared by treating the cells with 5× sample buffer, and then SDS-PAGE was performed using 10% SDS-PAGE gel. The proteins isolated through SDS-PAGE were transferred to a PVDF membrane. […]

MMP-1 [4] = experiment: MMP-1 expression increased by UV in keratinocytes, western blot; assay type: cell-based; conditions: HaCaT cells, 15 mJ/cm^2 UVB, peptide 10, 50, 100 μM, 24 hours after irradiation; FIG. 5B
Method: as §8, §9

MMP-2 = MMP-2 activity increased by UV in fibroblasts, gelatin zymography; assay type: cell-based, mouse; conditions: fibroblasts (NIH3T3), 6 J/cm^2 UVA, peptide 10, 50, 100 μM, 6 hours after irradiation; FIG. 6A
MMP-9 = MMP-9 activity increased by UV in keratinocytes, gelatin zymography; assay type: cell-based; conditions: keratinocytes (HaCaT), 15 mJ/cm^2 UVB, peptide 10, 50, 100 μM, 6 hours after irradiation; FIG. 6B

## DSSPLRSPSYAS [SEQ ID NO: 1]
Col1a1
  expression of the collagen gene: gradually increased as a concentration of the peptide increased
Fibronectin [1]
  expression of the fibronectin gene: gradually increased as a concentration of the peptide increased
elastin
  expression of the elastin gene: gradually increased as a concentration of the peptide increased
AQP3
  mRNA level of AQP3: increased
SIRT1
  mRNA level of SIRT1: increased
NIH3T3 cells
  intracellular reactive oxygen species level increased by UV irradiation: decreased
HaCaT cells
  intracellular reactive oxygen species level increased by UV irradiation: decreased
Colla1
  mRNA level of Colla1 decreased by UV irradiation: increased again
Fibronectin [2]
  mRNA level of fibronectin decreased by UV irradiation: increased again
MMP-1 [3]
  expression of MMP-1 increased by UV irradiation: inhibited
MMP-1 [4]
  expression of MMP-1 increased by UV irradiation: inhibited
MMP-2
  activity of MMP-2 protein increased by ultraviolet rays: inhibited
MMP-9
  activity of MMP-9 protein increased by ultraviolet rays: inhibited
